# Data reported in patent US20220304348A1, “TRITERPENE GLUCURONIDES AND THEIR USE AS FLAVOR MODIFIERS” (Firmenich SA, priority 2019, published 2022).
# Assay: Sweetness enhancement taste panel (sweetness and licorice taste ratings of 5% sucrose solutions)
# Assay type: in vivo, human
# Conditions: taste panel rating on a scale from 0 to 10; compound at 50 ppm in 5% sucrose solution in Henniez water; no flavor modifier = 5.0
# Method: A test compounds were tested for its sweetness enhancement of a 5% (w/w) aqueous solution of sucrose. Taste panelists were asked to taste the following 5% sucrose solutions in Henniez water and rate their sweetness on a scale from 0 to 10, and to rate the presence of any licorice taste in the sample on a scale from 0 to 10.
smiles,measurement,value
"CC1(C)[C@@H](O[C@@H]2O[C@H](C(=O)O)[C@@H](O)[C@H](O)[C@H]2O)CC[C@]2(C)[C@H]3C(=O)C=C4[C@@H]5C[C@@](C)(C(=O)O)CC[C@]5(C)CC[C@@]4(C)[C@]3(C)CC[C@@H]12 [Compound 108, β-Glycyrrhizin Monoglucuronate]",Sweetness (0-10),5.8
